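Each compound was tested at five concentrations against cells in 96-well plates for 48 hours. GI50 marks 50% less growth.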 Calls of active or inactive are those of the source. No stated cut-off is given here; in the data, active = GI50 up to about 1.1 µM and inactive = higher.
How the values were obtained:
Assay in all cases: NCI anticancer screen, dose series, 48 h
SK-MEL-5 = tested on: SK-MEL-5
SK-OV-3 = tested on: SK-OV-3
HOP-92 = tested on: HOP-92
IGROV-1 = tested on: IGROV-1
MOLT-4 = tested on: MOLT-4
SN12C = tested on: SN12C
HL-60 = tested on: HL-60
SF-295 = tested on: SF-295
BT-549 = tested on: BT-549
UACC-62 = tested on: UACC-62
ACHN = tested on: ACHN
OVCAR-3 = tested on: OVCAR-3
Hs-578T = tested on: Hs-578T
HCC 2998 = tested on: HCC 2998
LOX IMVI = tested on: LOX IMVI
SNB-19 = tested on: SNB-19
NCI-H460 = tested on: NCI-H460
PC-3 = tested on: PC-3
NCI-H226 = tested on: NCI-H226
SF-268 = tested on: SF-268

Measured: GI50

COc1ccc(NC(=S)N/N=C\c2ccc(NC(C)=O)cc2)cc1
inactive: SK-MEL-5 > 100 µM | SK-OV-3 > 100 µM | HOP-92 > 100 µM | IGROV-1 > 100 µM | MOLT-4 > 100 µM | SN12C > 100 µM | HL-60 41.1 µM | SF-295 > 100 µM | BT-549 > 100 µM | UACC-62 > 100 µM | ACHN > 100 µM | OVCAR-3 > 100 µM | Hs-578T > 100 µM | HCC 2998 > 100 µM | LOX IMVI > 100 µM | SNB-19 > 100 µM | NCI-H460 > 100 µM | PC-3 > 100 µM

Cc1cc2cc3c(O)nc(O)nc3nc2cc1C
inactive: SK-MEL-5 > 100 µM | SK-OV-3 > 100 µM | NCI-H226 > 100 µM | HOP-92 > 100 µM | IGROV-1 > 100 µM | MOLT-4 > 100 µM | SF-268 > 100 µM | SN12C > 100 µM | HL-60 > 100 µM | SF-295 > 100 µM | BT-549 > 100 µM | UACC-62 > 100 µM | ACHN > 100 µM | OVCAR-3 > 100 µM | Hs-578T > 100 µM | LOX IMVI > 100 µM | SNB-19 > 100 µM | NCI-H460 > 100 µM | PC-3 > 100 µM

CC#CC#C/C(=C/C=CC(=O)OC)SC
inactive: SK-MEL-5 > 100 µM | SK-OV-3 > 100 µM | NCI-H226 > 100 µM | HOP-92 > 100 µM | IGROV-1 > 100 µM | MOLT-4 > 100 µM | SF-268 > 100 µM | SN12C > 100 µM | HL-60 > 100 µM | SF-295 > 100 µM | BT-549 > 100 µM | UACC-62 > 100 µM | Hs-578T > 100 µM | HCC 2998 > 100 µM | LOX IMVI > 100 µM | NCI-H460 > 100 µM | PC-3 > 100 µM

CC(=O)OCC1OC(n2c3c(cc(C#N)c2=S)CCCCC3)C(OC(C)=O)C(OC(C)=O)C1OC(C)=O (stereo not drawn)
inactive: SK-MEL-5 > 100 µM | NCI-H226 > 100 µM | HOP-92 > 100 µM | IGROV-1 > 100 µM | MOLT-4 > 100 µM | SF-268 > 100 µM | SN12C > 100 µM | HL-60 > 100 µM | SF-295 > 100 µM | BT-549 > 100 µM | UACC-62 93.8 µM | ACHN > 100 µM | OVCAR-3 > 100 µM | Hs-578T > 100 µM | HCC 2998 > 100 µM | LOX IMVI > 100 µM | SNB-19 > 100 µM | NCI-H460 > 100 µM | PC-3 > 100 µM

Cc1c(-c2ccccc2)c(C#N)c2nnn(-c3cccc(Cl)c3)c(=O)n12
inactive: SK-MEL-5 71.1 µM | SK-OV-3 37.8 µM | NCI-H226 48.5 µM | HOP-92 44.9 µM | IGROV-1 54.8 µM | SF-268 80.5 µM | SN12C 71.8 µM | HL-60 > 100 µM | SF-295 39.6 µM | BT-549 88.7 µM | UACC-62 > 100 µM | ACHN 53.2 µM | OVCAR-3 43 µM | Hs-578T > 100 µM | HCC 2998 78.7 µM | LOX IMVI 87.1 µM | NCI-H460 > 100 µM | PC-3 26.5 µM

O=C1c2ccccc2-c2ccc(NC(=O)C3CCCCC3C(=O)O)cc21 (stereo not drawn)
inactive: SK-MEL-5 > 100 µM | SK-OV-3 > 100 µM | NCI-H226 > 100 µM | HOP-92 > 100 µM | IGROV-1 > 100 µM | MOLT-4 > 100 µM | SF-268 > 100 µM | SN12C 96.4 µM | HL-60 > 100 µM | SF-295 > 100 µM | BT-549 > 100 µM | UACC-62 > 100 µM | ACHN > 100 µM | OVCAR-3 > 100 µM | Hs-578T > 100 µM | LOX IMVI > 100 µM | SNB-19 > 100 µM | NCI-H460 > 100 µM | PC-3 > 100 µM

CC1CC(=O)Nc2ccccc2N1C(=O)C1CC1 (stereo not drawn)
inactive: SK-MEL-5 > 100 µM | SK-OV-3 > 100 µM | NCI-H226 > 100 µM | HOP-92 19.5 µM | IGROV-1 > 100 µM | MOLT-4 > 100 µM | SF-268 > 100 µM | SN12C > 100 µM | HL-60 > 100 µM | SF-295 > 100 µM | BT-549 > 100 µM | ACHN > 100 µM | OVCAR-3 > 100 µM | Hs-578T > 100 µM | HCC 2998 > 100 µM | LOX IMVI > 100 µM | SNB-19 > 100 µM | NCI-H460 > 100 µM | PC-3 > 100 µM

Cc1ccc(CC(Cc2ccccc2C)C(=O)O)c(C(=O)O)c1 (stereo not drawn)
inactive: SK-MEL-5 > 100 µM | NCI-H226 > 100 µM | HOP-92 > 100 µM | IGROV-1 > 100 µM | MOLT-4 > 100 µM | SF-268 > 100 µM | SN12C > 100 µM | HL-60 > 100 µM | SF-295 > 100 µM | BT-549 > 100 µM | ACHN > 100 µM | OVCAR-3 > 100 µM | Hs-578T > 100 µM | HCC 2998 > 100 µM | LOX IMVI > 100 µM | SNB-19 > 100 µM | NCI-H460 > 100 µM | PC-3 > 100 µM

O=P1(N(CCCl)CCCl)Oc2c(Cl)cc(Cl)c(Cl)c2Cc2c(Cl)c(Cl)cc(Cl)c2O1
inactive: SK-MEL-5 77.3 µM | SK-OV-3 43.2 µM | NCI-H226 26.9 µM | HOP-92 24.5 µM | MOLT-4 95.7 µM | SF-268 > 100 µM | SN12C 61.9 µM | HL-60 > 100 µM | SF-295 22.7 µM | BT-549 > 100 µM | UACC-62 48.3 µM | ACHN 51.1 µM | OVCAR-3 45.2 µM | Hs-578T 30.3 µM | HCC 2998 25.2 µM | LOX IMVI 39.8 µM | NCI-H460 25.2 µM | PC-3 23.2 µM

O=C(O)C(/C=C/c1ccccc1)c1ccccc1 (stereo not drawn)
inactive: SK-MEL-5 > 100 µM | SK-OV-3 > 100 µM | NCI-H226 > 100 µM | HOP-92 > 100 µM | IGROV-1 > 100 µM | MOLT-4 6.59 µM | SF-268 > 100 µM | SN12C > 100 µM | HL-60 9.25 µM | SF-295 > 100 µM | BT-549 > 100 µM | UACC-62 > 100 µM | ACHN > 100 µM | OVCAR-3 > 100 µM | Hs-578T > 100 µM | LOX IMVI > 100 µM | SNB-19 > 100 µM | NCI-H460 > 100 µM | PC-3 > 100 µM

COc1cc(Oc2nc3ccc(C(F)(F)F)cc3nc2-c2ccccc2)cc(OC)c1OC
inactive: SK-MEL-5 14.5 µM | SK-OV-3 12.4 µM | NCI-H226 33.3 µM | HOP-92 14.5 µM | IGROV-1 58.2 µM | MOLT-4 > 10 µM | SF-268 22.8 µM | SN12C 37 µM | HL-60 31.8 µM | SF-295 9.48 µM | BT-549 20.2 µM | UACC-62 11 µM | ACHN 11.6 µM | OVCAR-3 27.5 µM | Hs-578T 21.9 µM | HCC 2998 36.2 µM | LOX IMVI 18.4 µM | NCI-H460 34 µM | PC-3 22.6 µM

N#Cc1c(N)c2c(c(-c3ccccc3)c1-c1ccccc1)C(=O)N(O)C2=O
inactive: SK-MEL-5 25.3 µM | NCI-H226 18.8 µM | HOP-92 64.1 µM | IGROV-1 19.5 µM | MOLT-4 35.6 µM | SF-268 > 100 µM | SN12C > 100 µM | HL-60 53.7 µM | SF-295 38.7 µM | BT-549 42.2 µM | UACC-62 39.9 µM | ACHN > 100 µM | OVCAR-3 26.9 µM | Hs-578T 18.9 µM | HCC 2998 17.5 µM | LOX IMVI 89.7 µM | SNB-19 37.8 µM | NCI-H460 47.1 µM | PC-3 14.1 µM

CON(C)C(=O)C(C)N(Cc1ccccc1)Cc1ccccc1 (stereo not drawn)
inactive: SK-MEL-5 41.3 µM | SK-OV-3 66.8 µM | NCI-H226 64.6 µM | HOP-92 > 100 µM | IGROV-1 88.5 µM | MOLT-4 26.5 µM | SF-268 > 100 µM | SN12C > 10 µM | HL-60 46.9 µM | SF-295 > 100 µM | BT-549 45.6 µM | UACC-62 66.2 µM | ACHN 74.8 µM | OVCAR-3 88.3 µM | Hs-578T 50 µM | HCC 2998 > 100 µM | SNB-19 > 100 µM | NCI-H460 59 µM | PC-3 19.1 µM

O=C(O)CCC(=O)Nc1ccc2c(c1)S(=O)(=O)N(CC(=O)O)C2=O
inactive: SK-MEL-5 > 100 µM | SK-OV-3 > 100 µM | NCI-H226 > 100 µM | HOP-92 > 100 µM | IGROV-1 > 100 µM | MOLT-4 > 100 µM | SN12C > 100 µM | HL-60 > 100 µM | SF-295 > 100 µM | BT-549 > 100 µM | UACC-62 > 100 µM | ACHN > 100 µM | OVCAR-3 > 100 µM | Hs-578T > 100 µM | HCC 2998 > 100 µM | LOX IMVI > 100 µM | SNB-19 > 100 µM | NCI-H460 > 100 µM | PC-3 > 100 µM

Fc1cccc(C2SCC3=Nc4ccccc4CN32)c1 (stereo not drawn)
inactive: SK-MEL-5 17.9 µM | SK-OV-3 39.6 µM | HOP-92 84.1 µM | MOLT-4 37.8 µM | SF-268 67.1 µM | SN12C > 100 µM | HL-60 35.1 µM | SF-295 26.6 µM | BT-549 92.5 µM | UACC-62 50.2 µM | ACHN 36.9 µM | OVCAR-3 20.2 µM | Hs-578T > 10 µM | HCC 2998 70.1 µM | LOX IMVI 40.6 µM | SNB-19 21.6 µM | NCI-H460 37.9 µM | PC-3 28.2 µM

Reference: ChEMBL document CHEMBL1201862, “PubChem BioAssay data set” (2004)
